Results from patent US6451254B1, “Sterilization of diffusion-restricted area by revaporizing the condensed vapor” (Ethicon, Inc., priority 1998, dated 2002).
Where two headings read alike, the source gives them in different places.

Tests used:
[1] = test system: Bacillus stearothermophilus spores
Source text: The Petri dish contained a biological challenge consisting of 2.2×10^6 Bacillus stearothermophilus spores on a stainless steel coupon. A coupon was also placed in the center of each of the three lumens. The coupon in the Petri dish was used as a test of the effectiveness of the method at sterilizing the exterior of a device, and the coupons in the lumens were a test of the effectiveness of sterilizing the interior of the lumens. In the following experiment, the condensed hydrogen peroxide was revaporized multiple times. The following procedure was followed in the experiment. A tray containing the Petri dish and three lumens with inoculated blades was placed in a 173 L sterilization chamber, as in the other examples, and the chamber was evacuated to 0.4 torr. The experiment with multiple revaporizations was conducted as follows: 1. 3 grams of 59% hydrogen peroxide were introduced into the vaporizer. 2. The hydrogen peroxide was vaporized and introduced into the sterilization chamber over a period of 5 minutes. 3. The pressure was reduced to 4 torr for 5 minutes to revaporize the hydrogen peroxide. 4. The sterilization chamber was vented to 1 atmosphere pressure for 0.5 minutes to condense the vapor again. 5. The pressure in the sterilization chamber was reduced to 4 torr and maintained at a constant pressure of 4 torr for 14.5 minutes. The total cycle lasted 25 minutes.

[2] = test system: Bacillus stearothermophilus spores; conditions: 3 g of 59 wt % hydrogen peroxide, 5 Minutes Vaporization and 20 Minutes Diffusion
Source text: (§1) The Petri dish contained a biological challenge consisting of 2.2×10^6 Bacillus stearothermophilus spores on a stainless steel coupon. A coupon was also placed in the center of each of the three lumens. The coupon in the Petri dish was used as a test of the effectiveness of the method at sterilizing the exterior of a device, and the coupons in the lumens were a test of the effectiveness of sterilizing the interior of the lumens.
In Example 3, the pressure in the sterilization chamber was reduced to 0.4 torr, a total of 3 g of 59 wt % hydrogen peroxide was placed in the vaporizer, and the hydrogen peroxide was vaporized and diffused into the sterilization chamber for 5 minutes. The hydrogen peroxide was then allowed to diffuse at various pressures for 20 minutes. The pressure in the sterilization chamber was at constant pressure by controlling the pressure with an automatic valve between the sterilization chamber and the vacuum pump.
The experiment on the first line of Table 5 is the control experiment, in which the hydrogen peroxide was vaporized into the chamber and allowed to diffuse with the valve between the sterilization chamber and the vacuum pump closed. The pressure in the sterilization chamber was 9.5 torr, which is higher than the vapor pressure of 43 mole % hydrogen peroxide/water solution at 20° C., the approximate temperature of the equipment in the sterilization chamber, as shown in Table 2.
In the experiments described on the following lines of Table 5, the 3 grams of 59 wt % hydrogen peroxide was vaporized for 5 minutes.
The pressure in the sterilization chamber was then reduced, and the condensed vapor was vaporized and allowed to diffuse at constant pressure for 20 minutes. The interior of the sterilization chamber was maintained at a constant pressure by the automatic valve between the sterilization chamber and the vacuum pump. The constant pressure in the sterilization chamber ranged from 7 torr to 1 torr.
In the examples on the following lines, the same procedure was followed, vaporizing 3 g of 59 wt % hydrogen peroxide for 5 minutes and diffusing at constant pressure for 20 minutes. The constant diffusion pressure ranged from 1 to 6 torr.

[3] = test system: Bacillus stearothermophilus spores; conditions: 3 g of 57% hydrogen peroxide, 5 Minutes Vaporization
Source text: The Petri dish contained a biological challenge consisting of 2.2×10^6 Bacillus stearothermophilus spores on a stainless steel coupon. A coupon was also placed in the center of each of the three lumens. The coupon in the Petri dish was used as a test of the effectiveness of the method at sterilizing the exterior of a device, and the coupons in the lumens were a test of the effectiveness of sterilizing the interior of the lumens. In Example 5, the Petri dish and three lumens were placed in a tray with 40 medical devices in the sterilization chamber, the chamber was evacuated to 0.4 torr, 3 g of 57% hydrogen peroxide were vaporized into the chamber over 5 minutes, and the chamber was vented to 1 atmosphere. The hydrogen peroxide was then allowed to diffuse for a total of 20 minutes, either at 1 atmosphere pressure or 4 torr. In the first experiment in Table 7, the sterilization chamber was vented to atmosphere after the hydrogen peroxide was vaporized into the sterilization chamber, and the hydrogen peroxide vapor was allowed to diffuse at 1 atmosphere for 19.5 minutes. […] The first experiment was the control experiment for the second experiment. In the second experiment in Table 7, the sterilization chamber was vented to atmosphere for 0.5 minutes, then the pressure in the sterilization chamber was reduced to 4 torr and controlled at that pressure for a total of 19.5 minutes.

[4] = test system: Bacillus stearothermophilus spores; conditions: 5 minutes vaporization, no revaporization
Source text: In Example 1, the following items were placed in a CSR-wrapped tray in a 173 L sterilization chamber: Open Petri dish 2.48 mm id×50 cm Teflon lumen 2.48 mm id×75 cm Teflon lumen 2.48 mm id×100 cm Teflon lumen 40 pieces of medical devices The Petri dish contained a biological challenge consisting of 2.2×10^6 Bacillus stearothermophilus spores on a stainless steel coupon. A coupon was also placed in the center of each of the three lumens. The coupon in the Petri dish was used as a test of the effectiveness of the method at sterilizing the exterior of a device, and the coupons in the lumens were a test of the effectiveness of sterilizing the interior of the lumens. Three experiments were performed in which 1, 2, and 3 g of 59 wt % hydrogen peroxide were introduced into the vaporizer after the chamber was evacuated to 0.4 torr and allowed to vaporize and diffuse into the chamber for 5 minutes.

[5] = test system: Bacillus stearothermophilus spores; conditions: 3 g of 59% hydrogen peroxide, 5 Minutes Vaporization
Source text: as §1, with “the lumens. In Example 2, the test of Example 1 with 3 g of 59% hydrogen peroxide was repeated with the addition of 20 minutes exposure time to the hydrogen peroxide vapor.” for “the lumens.”

[6] = test system: Bacillus stearothermophilus spores; conditions: 3 g of 59 wt % hydrogen peroxide, 5 Minutes Vaporization and 20 Minutes Diffusion; remark: listed apart in the source
Experimental: as §1
In this example, the procedure of Example 3 was carried out, but the valve between the sterilization chamber and the vacuum pump was closed after the desired pressure was reached. In Example 3, constant pressure was maintained throughout the 20 minutes of diffusion.
The Petri dish and three lumens were placed in a tray in a 173 L sterilization chamber, and the chamber was evacuated to 0.4 torr. A total of 3 g of 59 wt % hydrogen peroxide was vaporized in the vaporizer and diffused into the sterilization chamber over a period of 5 minutes, and the pressure in the sterilization chamber was reduced to the desired value, and the valve between the sterilization chamber and the vacuum pump was closed. The hydrogen peroxide was then allowed to diffuse in the sterilization chamber for 20 minutes.

[7] = 3 grams of 59% hydrogen peroxide, Cycle with Two-Vaporization Process: 5 minutes vaporization, 4 torr 5 minutes, vent 1 atmosphere 0.5 minutes, 4 torr 14.5 minutes
[8] = control: 5 Minutes Vaporization plus 20 Minutes Diffusion at 1 atm.
[9] = Reducing and controlling at 1 torr
[10] = Reducing and controlling at 2 torr
[11] = Reducing and controlling at 3 torr
[12] = Reducing and controlling at 4 torr
[13] = Reducing and controlling at 5 torr
[14] = Reducing and controlling at 6 torr
[15] = Reducing and controlling at 7 torr
[16] = Without pump-down, final pressure about 9.5 torr
[17] = 0.5 Minutes Vent Plus 19.5 Minutes Reducing and Controlling at 4 Torr
[18] = 0.5 Minutes Vent Plus 19.5 Minutes at 1 Atm.
[19] = Valve closed at 1 torr, final pressure about 1.7 torr
[20] = Valve closed at 2 torr, final pressure about 2.8 torr

OO [hydrogen peroxide]
Sterility Results In 2.48 mm × 50 cm lumen [1, 7]: − | Sterility Results In 2.48 mm × 75 cm lumen [1, 7]: − | Sterility Results In 2.48 mm × 100 cm lumen [1, 7]: − | Sterility Results In Open Petri Dish [1, 7]: − | Sterility Results In 2.48 mm × 50 cm lumen [1, 8]: − | Sterility Results In 2.48 mm × 75 cm lumen [1, 8]: + | Sterility Results In 2.48 mm × 100 cm lumen [1, 8]: + | Sterility Results In Open Petri Dish [1, 8]: − | Sterility Results In 2.48 mm × 50 cm lumen [2, 9]: − | Sterility Results In 2.48 mm × 75 cm lumen [2, 9]: + | Sterility Results In 2.48 mm × 100 cm lumen [2, 9]: + | Sterility Results In Open Petri Dish [2, 9]: − | Sterility Results In 2.48 mm × 50 cm lumen [2, 10]: − | Sterility Results In 2.48 mm × 75 cm lumen [2, 10]: − | Sterility Results In 2.48 mm × 100 cm lumen [2, 10]: + | Sterility Results In Open Petri Dish [2, 10]: − | Sterility Results In 2.48 mm × 50 cm lumen [2, 11]: − | Sterility Results In 2.48 mm × 75 cm lumen [2, 11]: − | Sterility Results In 2.48 mm × 100 cm lumen [2, 11]: − | Sterility Results In Open Petri Dish [2, 11]: − | Sterility Results In 2.48 mm × 50 cm lumen [2, 12]: − | Sterility Results In 2.48 mm × 75 cm lumen [2, 12]: − | Sterility Results In 2.48 mm × 100 cm lumen [2, 12]: − | Sterility Results In Open Petri Dish [2, 12]: − | Sterility Results In 2.48 mm × 50 cm lumen [2, 13]: − | Sterility Results In 2.48 mm × 75 cm lumen [2, 13]: − | Sterility Results In 2.48 mm × 100 cm lumen [2, 13]: − | Sterility Results In Open Petri Dish [2, 13]: − | Sterility Results In 2.48 mm × 50 cm lumen [2, 14]: − | Sterility Results In 2.48 mm × 75 cm lumen [2, 14]: − | Sterility Results In 2.48 mm × 100 cm lumen [2, 14]: − | Sterility Results In Open Petri Dish [2, 14]: − | Sterility Results In 2.48 mm × 50 cm lumen [2, 15]: − | Sterility Results In 2.48 mm × 75 cm lumen [2, 15]: − | Sterility Results In 2.48 mm × 100 cm lumen [2, 15]: + | Sterility Results In Open Petri Dish [2, 15]: − | Sterility Results In 2.48 mm × 50 cm lumen [2, 16]: − | Sterility Results In 2.48 mm × 75 cm lumen [2, 16]: + | Sterility Results In 2.48 mm × 100 cm lumen [2, 16]: + | Sterility Results In Open Petri Dish [2, 16]: − | Sterility Results In 2.48 mm × 50 cm lumen [3, 17]: − | Sterility Results In 2.48 × 75 cm Lumen [3, 17]: − | Sterility Results In 2.48 × 100 cm lumen [3, 17]: − | Sterility Results In Open Petri Dish [3, 17]: − | Sterility Results In 2.48 mm × 50 cm lumen [3, 18]: − | Sterility Results In 2.48 × 75 cm Lumen [3, 18]: + | Sterility Results In 2.48 × 100 cm lumen [3, 18]: + | Sterility Results In Open Petri Dish [3, 18]: − | Sterility Results In 2.48 mm × 50 cm Teflon lumen ([4]; 1 g 59% hydrogen peroxide): − | Sterility Results In 2.48 mm × 75 cm Teflon lumen ([4]; 1 g 59% hydrogen peroxide): + | Sterility Results In 2.48 × 100 cm Teflon lumen ([4]; 1 g 59% hydrogen peroxide): + | Sterility Results In Open Petri Dish ([4]; 1 g 59% hydrogen peroxide): − | Sterility Results In 2.48 mm × 50 cm Teflon lumen ([4]; 2 g 59% hydrogen peroxide): − | Sterility Results In 2.48 mm × 75 cm Teflon lumen ([4]; 2 g 59% hydrogen peroxide): + | Sterility Results In 2.48 × 100 cm Teflon lumen ([4]; 2 g 59% hydrogen peroxide): + | Sterility Results In Open Petri Dish ([4]; 2 g 59% hydrogen peroxide): − | Sterility Results In 2.48 mm × 50 cm Teflon lumen ([4]; 3 g 59% hydrogen peroxide): − | Sterility Results In 2.48 mm × 75 cm Teflon lumen ([4]; 3 g 59% hydrogen peroxide): + | Sterility Results In 2.48 × 100 cm Teflon lumen ([4]; 3 g 59% hydrogen peroxide): + | Sterility Results In Open Petri Dish ([4]; 3 g 59% hydrogen peroxide): − | Sterility Results In 2.48 mm × 50 cm lumen ([5]; Diffusion Time 0 Minute): − | Sterility Results In 2.48 mm × 75 cm lumen ([5]; Diffusion Time 0 Minute): + | Sterility Results In 2.48 × 100 cm lumen ([5]; Diffusion Time 0 Minute): + | Sterility Results In Open Petri Dish ([5]; Diffusion Time 0 Minute): − | Sterility Results In 2.48 mm × 50 cm lumen ([5]; Diffusion Time 20 Minutes): − | Sterility Results In 2.48 mm × 75 cm lumen ([5]; Diffusion Time 20 Minutes): + | Sterility Results In 2.48 × 100 cm lumen ([5]; Diffusion Time 20 Minutes): + | Sterility Results In Open Petri Dish ([5]; Diffusion Time 20 Minutes): − | Sterility Results In 2.48 mm × 50 cm lumen [6, 19]: − | Sterility Results In 2.48 mm × 75 cm lumen [6, 19]: − | Sterility Results In 2.48 mm × 100 cm lumen [6, 19]: + | Sterility Results In Open Petri Dish [6, 19]: − | Sterility Results In 2.48 mm × 50 cm lumen [6, 20]: − | Sterility Results In 2.48 mm × 75 cm lumen [6, 20]: − | Sterility Results In 2.48 mm × 100 cm lumen [6, 20]: − | Sterility Results In Open Petri Dish [6, 20]: −
